“Also recorded” adds a separate entry of the source.
Key:
[1] = tested on: human lung cancer NCI-H1581 xenografts; experiment: Growth of subcutaneous xenografts of human lung cancer NCI-H1581 in nude mice; assay type: in vivo; conditions: for Relative tumor volume RTV (mean ± SD): NCI-H1581, 50 mg/kg orally once a day; for Weight (g, mean ± SD): NCI-H1581 tumor-bearing mice, 50 mg/kg orally once a day
Description: (§1) The diameter of the subcutaneously implanted tumor in nude mice was measured by a vernier caliper. […] In the compound HuFGFR267 50 mg/kg group, the compound was formulated with 0.5% methylcellulose (MC) to the required concentration before use. The formulation of compound was prepared once a week, and orally administered once a day for 14 days. The positive control drug AZD4547 was diluted to the required concentration with water for injection containing 1% Tween 80 before use. The formulation of AZD4547 was prepared once a week, and orally administered once a day for 14 days. In the solvent control group, an equal amount of water for injection was administrated.

[2] = tested on: human gastric cancer SNU-16 xenografts; experiment: Growth of subcutaneous xenografts of human gastric cancer SNU-16 in nude mice (HuFGFR267 study); assay type: in vivo; conditions: for relative tumor proliferation rate T/C: day 21; for Weight (g, mean ± SD): SNU-16 tumor-bearing mice
Description: as §1, with “The formulation of compound was prepared once a week, and orally administered once a day for 14 days.” left out, “The formulation of AZD4547 was prepared once a week, and orally administered once a day for 14 days.” left out

CN1CCN(Cc2ccc(NC(=O)c3ccc(Cl)c(C#Cc4cccnc4N)c3)cc2C(F)(F)F)CC1 [Example 1, 3-(2-aminopyridine-3-ethynyl)-4-chloro-N-(4-((4-methylpiperazin-1-yl)methylene)-3-(trifluoromethyl)phenyl)benzamide]
body weight of tumor-bearing mice (in words) ([1]; NCI-H1581, 50 mg/kg orally once a day for 14 days): no significant change | relative tumor proliferation rate T/C ([1]; NCI-H1581, 50 mg/kg orally once a day for 14 days, 14th day): 3.77% | Relative tumor volume RTV (mean ± SD) ([1]; d0): 1.00 ± 0.00 | Relative tumor volume RTV (mean ± SD) ([1]; d3): 1.28 ± 0.40 | Relative tumor volume RTV (mean ± SD) ([1]; d7): 1.33 ± 0.74 | Relative tumor volume RTV (mean ± SD) ([1]; d10): 2.02 ± 1.10 | Relative tumor volume RTV (mean ± SD) ([1]; d14): 2.16 ± 1.41 | animal deaths during the experiment ([1]; NCI-H1581, each group (HuFGFR267 50 mg/kg, AZD4547 12.5 mg/kg)): no mice died | Weight (g, mean ± SD) ([1]; d0): 18.1 ± 1.2 g | Weight (g, mean ± SD) ([1]; d3): 19.2 ± 1.0 g | Weight (g, mean ± SD) ([1]; d7): 19.7 ± 1.0 g | Weight (g, mean ± SD) ([1]; d10): 20.2 ± 1.2 g | Weight (g, mean ± SD) ([1]; d14): 20.0 ± 1.3 g | relative tumor proliferation rate T/C ([2]; SNU-16, 25 mg/kg orally once a day for 21 days): 18.55% | Relative tumor volume RTV (mean ± SD) ([2]; SNU-16, 25 mg/kg orally once a day, d0): 1.00 ± 0.00 | Relative tumor volume RTV (mean ± SD) ([2]; SNU-16, 25 mg/kg orally once a day, d3): 1.74 ± 0.58 | Relative tumor volume RTV (mean ± SD) ([2]; SNU-16, 25 mg/kg orally once a day, d7): 2.51 ± 0.93 | Relative tumor volume RTV (mean ± SD) ([2]; SNU-16, 25 mg/kg orally once a day, d10): 3.13 ± 1.51 | Relative tumor volume RTV (mean ± SD) ([2]; SNU-16, 25 mg/kg orally once a day, d14): 3.79 ± 1.93 | Relative tumor volume RTV (mean ± SD) ([2]; SNU-16, 25 mg/kg orally once a day, d17): 3.97 ± 1.58 | Relative tumor volume RTV (mean ± SD) ([2]; SNU-16, 25 mg/kg orally once a day, d21): 4.35 ± 2.03 | relative tumor proliferation rate T/C ([2]; SNU-16, 50 mg/kg orally once a day for 21 days): 11.66% | Relative tumor volume RTV (mean ± SD) ([2]; SNU-16, 50 mg/kg orally once a day, d0): 1.00 ± 0.00 | Relative tumor volume RTV (mean ± SD) ([2]; SNU-16, 50 mg/kg orally once a day, d3): 1.11 ± 0.42 | Relative tumor volume RTV (mean ± SD) ([2]; SNU-16, 50 mg/kg orally once a day, d7): 0.83 ± 0.49 | Relative tumor volume RTV (mean ± SD) ([2]; SNU-16, 50 mg/kg orally once a day, d10): 1.26 ± 0.71 | Relative tumor volume RTV (mean ± SD) ([2]; SNU-16, 50 mg/kg orally once a day, d14): 1.89 ± 1.57 | Relative tumor volume RTV (mean ± SD) ([2]; SNU-16, 50 mg/kg orally once a day, d17): 2.02 ± 1.63 | Relative tumor volume RTV (mean ± SD) ([2]; SNU-16, 50 mg/kg orally once a day, d21): 2.73 ± 2.82 | body weight of tumor-bearing mice (in words) ([2]; SNU-16, HuFGFR267 50 mg/kg and 25 mg/kg groups): no significant change; also recorded: did not change significantly | animal deaths during the experiment ([2]; SNU-16, each group (HuFGFR267 50 and 25 mg/kg, AZD4547 12.5 mg/kg)): no mice died | Weight (g, mean ± SD) ([2]; 25 mg/kg orally once a day, d0): 18.6 ± 1.6 g | Weight (g, mean ± SD) ([2]; 25 mg/kg orally once a day, d3): 19.4 ± 1.7 g | Weight (g, mean ± SD) ([2]; 25 mg/kg orally once a day, d7): 20.0 ± 1.8 g | Weight (g, mean ± SD) ([2]; 25 mg/kg orally once a day, d10): 20.9 ± 1.8 g | Weight (g, mean ± SD) ([2]; 25 mg/kg orally once a day, d14): 21.3 ± 1.7 g | Weight (g, mean ± SD) ([2]; 25 mg/kg orally once a day, d17): 21.2 ± 1.6 g | Weight (g, mean ± SD) ([2]; 25 mg/kg orally once a day, d21): 21.4 ± 1.8 g | Weight (g, mean ± SD) ([2]; 50 mg/kg orally once a day, d0): 18.9 ± 1.9 g | Weight (g, mean ± SD) ([2]; 50 mg/kg orally once a day, d3): 19.4 ± 2.2 g | Weight (g, mean ± SD) ([2]; 50 mg/kg orally once a day, d7): 19.9 ± 2.4 g | Weight (g, mean ± SD) ([2]; 50 mg/kg orally once a day, d10): 20.6 ± 2.3 g | Weight (g, mean ± SD) ([2]; 50 mg/kg orally once a day, d14): 20.5 ± 2.2 g | Weight (g, mean ± SD) ([2]; 50 mg/kg orally once a day, d17): 20.8 ± 2.3 g | Weight (g, mean ± SD) ([2]; 50 mg/kg orally once a day, d21): 20.7 ± 2.2 g
